The nature of series [1]: Abstinence syndrome (bodyweight decrease) on the day after drug withdrawal following 4 weeks of subcutaneous dosing. The class given is in vivo, male rats of Wistar strain. On the set-up: key: +++: severe decrease (about 5% decrease); ++: moderate decrease; +: mild decrease; -: no decrease. The settings on record: male Wistar rats, 20 mg/kg/day for 4 weeks, subcutaneous twice a day. As to the method: Compound for 4 weeks) syndrome
Note: Groups of male rats of Wistar strain (bodyweight, 150 g), each grou
consisting of 20 male rats, were subcutaneously given the test compound
twice a day for 4 consecutive weeks. On the next day after drug
withdrawal, the bodyweight was measured. The symbols have the following
meanings: +++, severe decrease (about 5% decrease); ++, moderate decrease
+, mild decrease; -, no decrease. The marked decrease is taken as an […]

Series [2] in a line: Subcutaneous writhing test (antagonism of the syndrome produced by intraperitoneal acetic acid). The settings on record: Mus musculus, sc. The class given is in vivo, mice. As to the method:
[…]. Note: The test was based on the specific antagonism of the test compound to the typical syndrome produced by intraperitoneal injection of 0.6% aqueous acetic acid. The syndrome was characterized by intermittent contractions of the abdomen, twisting and turning of the trunk and extension of the hind legs. A group of 5 mice was used for each dose level. The test compound was administered subcutaneously 20 minutes before the injection of acetic acid. […] The ED50 value was calculated according to the Litchfeld-Wilcoxon's method.
Background: Writhing tests count abdominal constrictions after an irritant is injected.

A short description of series [3]: Long term animal tests for addiction / physical dependency (daily oral or subcutaneous administration for over one month). The class given is in vivo. The settings on record: rats, orally or subcutaneously every day for over one month. An excerpt: On account of this addiction liability, these analgesics are severely restricted in a therapeutic use.
The conditions of series [4]: cited from earlier work.
Setting [5] is: mice, subcutaneous, 20 minutes before 0.6% acetic acid i.p., Litchfeld-Wilcoxon's method, read-out: ED50.

The source of these data is US3962446A, “Analgesic compositions containing 2-cyanoalkylbenzomorphan derivatives and salts thereof” (priority 1971, dated 1976).

By ED50 is commonly meant the dose that gives a 50% effect, or the effect in half of the subjects.

Read-outs that look alike come from different tables or passages of the source.

Turning to `CC1C2Cc3ccc(O)cc3C1(C)CCN2CCC#N` (stereo not drawn) [2'-Hydroxy-2-(β-cyanoethyl)-5,9-dimethyl-6,7-benzomorphan], the Abstinence syndrome entry in series [1] was “-”. Also, the median effective dose (ED50) in series [2] (setting [5]) amounted to 0.9 mg/kg. The “addiction / physical dependency” value in series [3] is recorded as “do not show addiction in long term animal tests”.
`CC(=O)Oc1ccc2c(c1)C1(C)CCN(CCC#N)C(C2)C1C` (stereo not drawn) [2'-Acetoxy-2-(β-cyanoethyl)-5,9-dimethyl-6,7-benzomorphan]: the Abstinence syndrome entry in series [1] is “-”. The median effective dose (ED50) in series [2] (setting [5]) came to 0.5 mg/kg. Besides, the “addiction / physical dependency” value in series [3] is “do not show addiction in long term animal tests”.
In the case of `COc1ccc2c3c1O[C@H]1[C@@H](O)C=C[C@H]4[C@@H](C2)N(C)CC[C@@]341` [Methylmorphine, reference compound], in series [2] (setting [5]), the median effective dose (ED50) is 14 mg/kg.
For the compound `CC1C2Cc3ccc(O)cc3C1(C)CCN2CCCC#N` (centres unmarked) [2'-Hydroxy-2-(γ-cyanopropyl)-5,9-dimethyl-6,7-benzomorphan], the Abstinence syndrome result in series [1] is “-”. In addition, the ED50 in series [2] (setting [5]) is 3 mg/kg.
In the case of `CC12CCN(CCC#N)C(Cc3ccccc31)C2` (stereo not drawn) [2-(β-Cyanoethyl)-5-methyl-6,7-benzomorphan], the Abstinence syndrome result in series [1] is recorded as “-”.
Consider `CCC12CCN(CCCC#N)C(Cc3ccc(O)cc31)C2C` (centres unmarked) [2'-hydroxy-2-(γ-cyanopropyl)-5-ethyl-9-methyl-6,7-benzomorphan], for which the Abstinence syndrome result in series [1] is listed as “-”. In series [2] (setting [5]), the ED50 is 0.19 mg/kg. For the same compound, the “addiction / physical dependency” value in series [3] is “do not show addiction in long term animal tests”.
As for `CC1C2Cc3ccc(O)cc3C1(C)CCN2C` (centres unmarked) [2'-Hydroxy-2,5,9-trimethyl-6,7-benzomorphan, reference compound], the Abstinence syndrome entry in series [1] is given as “++”. For the same compound, the ED50 in series [2] (setting [5]) amounted to 3.5 mg/kg. Besides, in series [4] (prior art compounds), the addiction liability entry is “show an addiction liability”. Moreover, the analgesic activity result in series [4] (prior art, U.S. Pat. No. 3,138,603) is “potent analgesic activity”.
Consider `CCC1C2Cc3ccc(O)cc3C1(CC)CCN2CCCC#N` (centres unmarked) [2'-hydroxy-2-(γ-cyanopropyl)-5,9-diethyl-6,7-benzomorphan], for which the Abstinence syndrome entry in series [1] was “-”. In addition, the ED50 in series [2] (setting [5]) came out at 0.3 mg/kg.
Consider `CC12CCN(CCC#N)C(Cc3ccc(O)cc31)C2` (stereo not drawn) [2'-Hydroxy-2-(β-cyanoethyl)-5-methyl-6,7-benzomorphan], for which the Abstinence syndrome result in series [1] is recorded as “-”. The ED50 in series [2] (setting [5]) came out at 2.9 mg/kg. Besides, in series [3], the “addiction / physical dependency” value was “do not show addiction in long term animal tests”.
In the case of `CC(C)=CCN1CCC2(C)c3cc(O)ccc3CC1C2C` (centres unmarked) [Pentazocine, 2'-hydroxy-2-(3"-methyl-2"-butenyl)-5,9-dimethyl-6,7-benzomorphan, reference compound], the ED50 in series [2] (setting [5]) amounted to 17.5 mg/kg.
Consider `CCC1C2Cc3ccc(O)cc3C1(C)CCN2CCCC#N` (centres unmarked) [2'-Hydroxy-2-(γ-cyanopropyl)-5-methyl-9-ethyl-6,7-benzomorphan], for which the Abstinence syndrome result in series [1] is listed as “-”. For the same compound, the median effective dose (ED50) in series [2] (setting [5]) stood at 1.5 mg/kg.
In turn, `CN1CC[C@]23c4c5ccc(O)c4O[C@H]2[C@@H](O)C=C[C@H]3[C@H]1C5` [Morphine, reference compound] had a 50% effective dose (ED50) in series [2] of 1.4 mg/kg.
